Measured values published in patent publication US4237139A, “4-(3-(4-Quinolyl)propyl)piperidines, their preparation and their use as medicines” (Pharmindustrie, priority 1976, dated 1980).
Where two headings read alike, the source gives them in different places.

Experiments:
[1] = tested on: uptake of serotonine by human blood platelets; test: Inhibition of the uptake of serotonine by human blood platelets; assay type: cell-based; details: for IC50: Platelet, read-out: Inhibition of the Uptake of serotonine I50; for times less effective than its epimer as inhibitor of serotonine uptake: Example 7 vs Example 1, Example 9 vs Example 3
From the text: It is known that the uptake of serotonine by the blood platelets is a good model or indication of the uptake of this amine by neurons [see J. TUOMISTO, J. Pharm., Pharmac., 26 92 (1974)]. When it is applied to the investigation of medicaments, a method which brings into play the blood platelets presents great interest because it makes it possible to use human cells, which enables the method to give a good anticipation of the effect of the products on human beings.
(§1) The capacity of the products for inhibiting the uptake of serotonine or for causing its release has been shown on human blood platelets according to J. L. DAVID et al. "Platelets Function and Thrombosis, a Review of Methods" p. 335 (Plenum Press, London, 1972).
(a) Inhibition of the uptake of serotonine
The results are expressed by a 50% inhibiting dose I50, which represents the product dose in micromoles per liter reducing the uptake of serotonine by 50%.

[2] = Acute toxicity (LD50) in mice; details: mouse, in vivo
Method: The acute toxicities and symptomatologies of the compounds according to the present invention have been determined on CD1 (Charles River) male mice by I.V. and oral methods. The LD50's were calculated, after 3 days of observation, by the cumulative method of J. J. Reed & H. Muench, Amer. J. Hyg., 27, 493, 1938, which is relied on herein and the disclosure incorporated by reference.

5-HTP-induced quivering = test: Potentiation test of 5-hydroxytryptophan (5-HTP), quivering in mice; assay type: in vivo, CD1 (Charles River) male mice; details: for ED50: Mus musculus, sc, read-out: ED 50, dose giving an average indication of quivering equal to 1; for inherent effect (in the absence of 5-HTP): dose of 25 mg/kg, control product groups
From the text: (2) Potentialing Effect of 5-HTP:
It is known that the administration of 5-HTP parenterally in mice causes, with large doses, a characteristic behavior, i.e. quivering, torsions of the trunk, displacement of the rear legs, shaking of the head and increased general motility. To show a potentiating power with respect to 5-HTP, the present inventors have therefore used to advantage one of the characteristic properties of the precursor of serotonine, i.e. quivering. The procedure used is inspired by that of C. […] Groups of 8 male mice were used. The chronological order of the test was as follows for the groups treated with both 5-HTP and the products according to the invention.
At time t=30 min., the product to the tested was injected subcutaneously (S.C.) in the form of a 9% aqueous solution of NaCl.
At time t=75 min., the quivering in each animal was measured using the following scale:
1=quivering of average intensity
The chronological order was the same for the "control 5-HTP" and "control product" groups except that, in the first case, a 9% aqueous solution of NaCl was injected in the S.C. manner instead of the product solution and, in the second case, a 9% aqueous solution of NaCl was injected in the I.P. manner instead of the 5-HTP solution. The "control product" groups received the same doses of the tested product as the groups treated with both 5-HTP and the product in order to discover any possible effect inherent in the product.
The number of points for each group was totalled and the average indication of quivering was determined.

[3] = tested on: ventricular arrhythmia caused by aconitine; test: animal or person; details: Rattus norvegicus, iv, read-out: ED50 I.V., dose increasing by 50% the perfusion time of aconitine
[4] = tested on: ventricular arrhythmia caused by aconitine; details: aconitine test, rats
[5] = tested on: release of serotonine by human blood platelets; test: Release of serotonine from human blood platelets; assay type: cell-based; details: for activation at 5 µM / activation at 50 µM: Homo sapiens, Platelet, read-out: Percentage of increase of the release of serotonine; for release of serotonine compared with p-chloro amphetamine, in words / release of serotonine, in words: human blood platelets
From the text: as §1
(b) Release of serotonine
The action of the products on the release of serotonine has been tested at two concentrations: 5×10^-6 mole per liter and 5×10^-5mole per liter.
The results obtained are expressed by a percentage of increase of the release of serotonine in comparison with the results obtained with the controls.

[6] = tested on: sleep induced by serotonine; test: Potentiation of sleep induced by serotonine in chickens; assay type: in vivo, chicken
Method: The role of the cerebral serotonine in sleep is a well-known fact as reported by M. Jouvet and Coll., C. R. Acad. Sc.
Groups of 12 chickens were used, to which were administered intravenously serotonine at a dosage level of 0.1 mg/kg.

[7] = tested on: vasoconstriction of the nasal mucous membrane; test: Vascular action: potentiation of the vascular effects of serotonine in anaesthetized dog; assay type: in vivo
Method: The potentiation of the vascular effects of serotonine is shown according to the procedure of J. J. Loux, Arch. […] The modified method consists in injecting into the carotid of an anaesthetized dog increasing and cumulated doses of serotonine. […] This increase was measured by connecting the nasal sinus, hermetically isolated from outside, with a pressure gauge.

[8] = tested on: benzodiazepine receptors in rat brain membranes; test: Inhibition of specific ^3 H-diazepam binding to rat brain membranes; details: for Ki: read-out: Ki, Inhibition of Specific ^3 H-Diazepam Binding To Rat Brain Membranes, rat brain membranes, ^3 H-diazepam
in vivo = details: rat, iv
[9] = tested on: uptake of serotonine by synaptosomes of the rat's brain; test: Inhibition of the uptake of serotonine by synaptosomes of the rat's brain; assay type: biochemical; details: in vitro, read-out: 50% inhibiting dose I50, uptake of serotonine by synaptosomes
[10] = iv, I.V., Table 4 (toxicity; species not given), read-out: LD50 I.V.
[11] = po, Table 6, P.O., mice, 3 days of observation, read-out: LD50 P.O.
[12] = 5 × 10^-5 mole per liter, in comparison with controls
[13] = 5 × 10^-6 mole per liter, in comparison with controls

Compound | IC50 ([1]; Homo sapiens) | LD50 at 72 h [2, 10] | LD50 at 72 h [2, 11] | ED50 [3] | activation at 5 µM [5] | activation at 50 µM [5] | Ki [8] | selectivity ratio (in vivo) | further results
C=C[C@H]1CNCC[C@H]1CCCc1ccnc2ccc(OC)cc12 [Example 1, 4(R)-[3-(6-methoxy 4-quinolyl)propyl] 3(R)-vinyl piperidine] | 10 nM | 30 mg/kg | 600 mg/kg | 2 mg/kg | 7% | 32% | – | – | ED50 (5-HTP-induced quivering): 14 mg/kg; inherent effect (in the absence of 5-HTP) (5-HTP-induced quivering): did not have any inherent effect; antiarythmic effectiveness compared with quinidine and disopyramide, in words [4]: more effective than the reference products (quinidine and disopyramide); chickens sent to sleep ([6]; product of Example 1 at 3 mg/kg I.V. + serotonine 0.1 mg/kg I.V.): 60%; potentiation of vascular effect of serotonine (pressure decrease measured by the gauge) ([7]; 1 μg/kg I.V., 0.05 μg/kg of serotonine): twice greater
CC(N)Cc1ccc(Cl)cc1 (stereo not drawn) [p-Chloro amphetamine, p-chloro amphetamine, reference compound] | 12000 nM | – | – | – | 6% | 51% | – | – | –
CN(C)CCCN1c2ccccc2CCc2ccccc21 [Imipramine, reference compound] | 400 nM | – | – | – | 3% | 13% | – | – | Ki, Inhibition of Specific ^3 H-Diazepam Binding To Rat Brain Membranes [8]: inactive
CC[C@H]1CNCC[C@H]1CCCc1ccnc2ccccc12 [Example 5, 4(R)-[3-(4-quinolyl)propyl] 3(R)-ethyl piperidine] | – | 22 mg/kg | 600 mg/kg | 2.3 mg/kg | – | – | 8000 nM | 9.6 | antiarythmic effectiveness compared with quinidine and disopyramide, in words [4]: more effective than the reference products (quinidine and disopyramide)
NCCc1c[nH]c2ccc(O)cc12 [serotonine, reference compound] | – | – | – | – | – | – | – | – | chickens sent to sleep ([6]; serotonine 0.1 mg/kg I.V. alone): 25%; minimal effective dose ([7]; Canis lupus familiaris, serotonine into the carotid, increasing and cumulated doses, read-out: dose from which an increase of the total volume of sinus was observed): ≥ 0.0002 mg/kg
C=C[C@H]1CNCC[C@H]1CCCc1ccnc2ccccc12 [Example 2, 4(R)-[3-(4-quinolyl)propyl] 3(R)-vinyl piperidine] | – | 30 mg/kg | 525 mg/kg | 12 mg/kg | – | – | 2500 nM | 2.5 | ED50 (5-HTP-induced quivering; product S.C., 5-HTP 150 mg/kg I.P., male mice): 12 mg/kg; inherent effect (in the absence of 5-HTP) (5-HTP-induced quivering): did not have any inherent effect; IC50 [9]: 35 nM
CC[C@H]1CNCC[C@H]1CCCc1ccnc2ccc(OC)cc12 [Example 3, 4(R)-[3-(6-methoxy 4-quinolyl)propyl] 3(R)-ethyl piperidine] | – | 21 mg/kg | 600 mg/kg | 0.7 mg/kg | – | – | 4500 nM | 30 | IC50 ([1]; human blood platelets): 10 nM; IC50 [9]: 8 nM; antiarythmic effectiveness compared with quinidine and disopyramide, in words [4]: more effective than the reference products (quinidine and disopyramide); activation at 50 µM [5, 12]: 67%; activation at 5 µM [5, 13]: 34%; release of serotonine compared with p-chloro amphetamine, in words [5]: even more effective than p-chloro amphetamine; release of serotonine, in words [5]: powerful agents for the release of serotonine
CC(C)N(CCC(C(N)=O)(c1ccccc1)c1ccccn1)C(C)C (stereo not drawn) [Disopyramide, reference compound] | – | 26 mg/kg | – | 4 mg/kg | – | – | – | 6.5 | –
C=C[C@H]1C[N@@]2CC[C@H]1C[C@@H]2[C@@H](O)c1ccnc2ccc(OC)cc12 [Quinidine, reference compound] | – | 70 mg/kg | – | 7.5 mg/kg | – | – | – | 9.3 | –
c1ccc2c(CCCC3CCNCC3)ccnc2c1 [Example 4, 4-[3-(4-quinolyl)propyl]piperidine] | – | 42 mg/kg | 600 mg/kg | 15 mg/kg | – | – | 3500 nM | 2.8 | –
CC[C@@H]1CNCC[C@H]1CCCc1ccnc2ccc(OC)cc12 [Example 9, 4(R)-[3-(6-methoxy 4-quinolyl)propyl]3(S)-ethyl piperidine] | – | – | 200 mg/kg | – | – | – | 5000 nM | – | IC50 ([1]; human blood platelets): 100 nM; times less effective than its epimer as inhibitor of serotonine uptake ([1]; human blood platelets): ≥ 10 times; activation at 50 µM [5, 12]: 69%; activation at 5 µM [5, 13]: 30%; release of serotonine compared with p-chloro amphetamine, in words [5]: even more effective than p-chloro amphetamine; release of serotonine, in words [5]: powerful agents for the release of serotonine
C=C[C@@H]1CNCC[C@H]1CCCc1ccnc2ccc(OC)cc12 [Example 7, 4(R)-[3-(6-methoxy 4-quinolyl)propyl]3(S)-vinyl piperidine] | 1000 nM | – | 225 mg/kg | – | 40% | 78% | – | – | times less effective than its epimer as inhibitor of serotonine uptake ([1]; human blood platelets): 100 times; release of serotonine compared with p-chloro amphetamine, in words [5]: even more effective than p-chloro amphetamine; release of serotonine, in words [5]: powerful agents for the release of serotonine
